{"source": "the kinase profiling compilation of Christmann-Franck et al. (2016)", "assay_in_all_cases": "KINOMEscan competition binding", "conditions_in_all_cases": "compound 10.0 µM", "key": {"STK11 (human)": {"molecular_target": "STK11 (human) (UniProt Q15831)"}, "CLK2 (human)": {"molecular_target": "CLK2 (human) (UniProt P49760)"}, "ERBB4 (human)": {"molecular_target": "ERBB4 (human) (UniProt Q15303)"}, "CSF1R (human)": {"molecular_target": "CSF1R (human) (UniProt P07333)"}, "PDGFRA (human)": {"molecular_target": "PDGFRA (human) (UniProt P16234)"}, "HCK (human)": {"molecular_target": "HCK (human) (UniProt P08631)", "sequence (P08631 whole entry, looked up)": "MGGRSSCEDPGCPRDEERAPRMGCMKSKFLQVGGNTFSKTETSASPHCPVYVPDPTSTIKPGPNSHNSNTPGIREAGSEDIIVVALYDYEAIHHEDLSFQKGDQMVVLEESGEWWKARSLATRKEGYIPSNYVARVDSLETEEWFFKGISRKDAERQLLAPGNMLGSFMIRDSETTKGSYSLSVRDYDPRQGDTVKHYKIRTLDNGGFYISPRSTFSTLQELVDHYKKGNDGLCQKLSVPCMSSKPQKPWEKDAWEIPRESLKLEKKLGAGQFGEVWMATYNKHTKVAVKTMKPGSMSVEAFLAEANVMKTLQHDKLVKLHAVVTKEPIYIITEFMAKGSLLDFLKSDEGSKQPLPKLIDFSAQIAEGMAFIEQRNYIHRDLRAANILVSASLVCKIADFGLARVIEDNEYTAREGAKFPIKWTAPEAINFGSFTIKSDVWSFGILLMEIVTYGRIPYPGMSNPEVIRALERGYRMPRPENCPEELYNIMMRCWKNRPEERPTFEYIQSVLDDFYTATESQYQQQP"}, "ALK (human)": {"molecular_target": "ALK (human) (UniProt Q9UM73)"}, "LCK (human)": {"molecular_target": "LCK (human) (UniProt P06239)"}, "PTK6 (human)": {"molecular_target": "PTK6 (human) (UniProt Q13882)"}, "INSR (human)": {"molecular_target": "INSR (human) (UniProt P06213)"}, "CAMK4 (human)": {"molecular_target": "CAMK4 (human) (UniProt Q16566)"}, "NEK1 (human)": {"molecular_target": "NEK1 (human) (UniProt Q96PY6)"}, "LIMK2 (human)": {"molecular_target": "LIMK2 (human) (UniProt P53671)"}, "MAP3K9 (human)": {"molecular_target": "MAP3K9 (human) (UniProt P80192)"}, "EPHA4 (human)": {"molecular_target": "EPHA4 (human) (UniProt P54764)", "sequence (P54764 whole entry, looked up)": "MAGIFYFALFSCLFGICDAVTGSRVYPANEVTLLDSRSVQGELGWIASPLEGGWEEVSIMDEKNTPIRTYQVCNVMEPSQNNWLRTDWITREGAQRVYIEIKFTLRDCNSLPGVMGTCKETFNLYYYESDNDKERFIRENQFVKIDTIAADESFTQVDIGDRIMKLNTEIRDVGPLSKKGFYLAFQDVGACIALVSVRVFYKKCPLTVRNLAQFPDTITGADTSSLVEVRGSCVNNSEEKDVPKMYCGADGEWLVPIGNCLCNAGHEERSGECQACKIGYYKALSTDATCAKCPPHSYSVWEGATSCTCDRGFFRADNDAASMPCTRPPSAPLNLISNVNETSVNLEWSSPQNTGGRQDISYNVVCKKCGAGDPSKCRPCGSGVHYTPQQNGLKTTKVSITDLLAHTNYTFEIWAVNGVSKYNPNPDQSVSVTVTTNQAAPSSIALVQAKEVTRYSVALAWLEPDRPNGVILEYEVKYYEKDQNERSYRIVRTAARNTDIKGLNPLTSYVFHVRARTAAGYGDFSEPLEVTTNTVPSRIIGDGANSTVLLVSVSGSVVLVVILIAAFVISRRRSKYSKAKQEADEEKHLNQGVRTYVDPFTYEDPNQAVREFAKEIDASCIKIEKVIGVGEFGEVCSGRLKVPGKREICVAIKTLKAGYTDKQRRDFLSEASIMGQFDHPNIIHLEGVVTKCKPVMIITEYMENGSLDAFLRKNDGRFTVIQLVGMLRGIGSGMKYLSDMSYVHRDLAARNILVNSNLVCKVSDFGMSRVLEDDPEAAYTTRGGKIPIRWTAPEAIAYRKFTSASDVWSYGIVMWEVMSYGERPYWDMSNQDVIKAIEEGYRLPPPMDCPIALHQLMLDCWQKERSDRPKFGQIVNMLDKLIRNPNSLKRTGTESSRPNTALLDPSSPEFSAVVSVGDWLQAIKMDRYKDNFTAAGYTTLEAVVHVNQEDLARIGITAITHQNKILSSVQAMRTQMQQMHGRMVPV"}, "PRKACB (human)": {"molecular_target": "PRKACB (human) (UniProt P22694)"}, "PLK4 (human)": {"molecular_target": "PLK4 (human) (UniProt O00444)"}, "MARK4 (human)": {"molecular_target": "MARK4 (human) (UniProt Q96L34)"}, "MINK1 (human)": {"molecular_target": "MINK1 (human) (UniProt Q8N4C8)"}, "MAPK14 (human)": {"molecular_target": "MAPK14 (human) (UniProt Q16539)", "sequence (Q16539 whole entry, looked up)": "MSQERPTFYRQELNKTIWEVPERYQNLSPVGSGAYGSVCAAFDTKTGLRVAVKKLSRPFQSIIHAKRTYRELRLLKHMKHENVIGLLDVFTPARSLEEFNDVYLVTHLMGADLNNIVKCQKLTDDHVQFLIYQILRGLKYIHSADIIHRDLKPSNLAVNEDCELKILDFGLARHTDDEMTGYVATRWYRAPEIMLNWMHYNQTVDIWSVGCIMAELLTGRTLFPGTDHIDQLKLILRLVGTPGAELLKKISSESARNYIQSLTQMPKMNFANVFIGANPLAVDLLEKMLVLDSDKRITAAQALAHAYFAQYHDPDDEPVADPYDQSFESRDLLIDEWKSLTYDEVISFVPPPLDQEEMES"}, "TSSK1B (human)": {"molecular_target": "TSSK1B (human) (UniProt Q9BXA7)"}, "HIPK1 (human)": {"molecular_target": "HIPK1 (human) (UniProt Q86Z02)"}, "CAMKK2 (human)": {"molecular_target": "CAMKK2 (human) (UniProt Q96RR4)"}, "IRAK3 (human)": {"molecular_target": "IRAK3 (human) (UniProt Q9Y616)"}, "MAPK7 (human)": {"molecular_target": "MAPK7 (human) (UniProt Q13164)"}, "MAP3K7 (human)": {"molecular_target": "MAP3K7 (human) (UniProt O43318)", "sequence (O43318 whole entry, looked up)": "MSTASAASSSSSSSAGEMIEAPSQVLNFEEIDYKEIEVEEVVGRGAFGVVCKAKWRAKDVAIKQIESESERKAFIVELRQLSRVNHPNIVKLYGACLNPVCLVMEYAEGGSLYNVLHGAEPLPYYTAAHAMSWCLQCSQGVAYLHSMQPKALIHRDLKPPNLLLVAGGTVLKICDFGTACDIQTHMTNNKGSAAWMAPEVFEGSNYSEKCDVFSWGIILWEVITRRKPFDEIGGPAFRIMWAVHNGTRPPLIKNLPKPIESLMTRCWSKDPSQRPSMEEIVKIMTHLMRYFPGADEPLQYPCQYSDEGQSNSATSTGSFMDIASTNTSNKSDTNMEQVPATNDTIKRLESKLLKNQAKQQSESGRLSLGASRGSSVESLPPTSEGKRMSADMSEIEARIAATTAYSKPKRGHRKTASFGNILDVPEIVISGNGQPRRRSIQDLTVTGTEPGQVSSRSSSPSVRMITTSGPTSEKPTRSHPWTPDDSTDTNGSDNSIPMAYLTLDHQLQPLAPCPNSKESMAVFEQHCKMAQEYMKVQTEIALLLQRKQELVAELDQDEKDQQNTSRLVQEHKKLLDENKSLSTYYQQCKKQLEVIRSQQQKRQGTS"}, "CAMK2D (human)": {"molecular_target": "CAMK2D (human) (UniProt Q13557)"}, "NEK6 (human)": {"molecular_target": "NEK6 (human) (UniProt Q9HC98)"}, "PAK2 (human)": {"molecular_target": "PAK2 (human) (UniProt Q13177)"}, "CIT (human)": {"molecular_target": "CIT (human) (UniProt O14578)"}, "MYLK (human)": {"molecular_target": "MYLK (human) (UniProt Q15746)", "sequence (Q15746 whole entry, looked up)": "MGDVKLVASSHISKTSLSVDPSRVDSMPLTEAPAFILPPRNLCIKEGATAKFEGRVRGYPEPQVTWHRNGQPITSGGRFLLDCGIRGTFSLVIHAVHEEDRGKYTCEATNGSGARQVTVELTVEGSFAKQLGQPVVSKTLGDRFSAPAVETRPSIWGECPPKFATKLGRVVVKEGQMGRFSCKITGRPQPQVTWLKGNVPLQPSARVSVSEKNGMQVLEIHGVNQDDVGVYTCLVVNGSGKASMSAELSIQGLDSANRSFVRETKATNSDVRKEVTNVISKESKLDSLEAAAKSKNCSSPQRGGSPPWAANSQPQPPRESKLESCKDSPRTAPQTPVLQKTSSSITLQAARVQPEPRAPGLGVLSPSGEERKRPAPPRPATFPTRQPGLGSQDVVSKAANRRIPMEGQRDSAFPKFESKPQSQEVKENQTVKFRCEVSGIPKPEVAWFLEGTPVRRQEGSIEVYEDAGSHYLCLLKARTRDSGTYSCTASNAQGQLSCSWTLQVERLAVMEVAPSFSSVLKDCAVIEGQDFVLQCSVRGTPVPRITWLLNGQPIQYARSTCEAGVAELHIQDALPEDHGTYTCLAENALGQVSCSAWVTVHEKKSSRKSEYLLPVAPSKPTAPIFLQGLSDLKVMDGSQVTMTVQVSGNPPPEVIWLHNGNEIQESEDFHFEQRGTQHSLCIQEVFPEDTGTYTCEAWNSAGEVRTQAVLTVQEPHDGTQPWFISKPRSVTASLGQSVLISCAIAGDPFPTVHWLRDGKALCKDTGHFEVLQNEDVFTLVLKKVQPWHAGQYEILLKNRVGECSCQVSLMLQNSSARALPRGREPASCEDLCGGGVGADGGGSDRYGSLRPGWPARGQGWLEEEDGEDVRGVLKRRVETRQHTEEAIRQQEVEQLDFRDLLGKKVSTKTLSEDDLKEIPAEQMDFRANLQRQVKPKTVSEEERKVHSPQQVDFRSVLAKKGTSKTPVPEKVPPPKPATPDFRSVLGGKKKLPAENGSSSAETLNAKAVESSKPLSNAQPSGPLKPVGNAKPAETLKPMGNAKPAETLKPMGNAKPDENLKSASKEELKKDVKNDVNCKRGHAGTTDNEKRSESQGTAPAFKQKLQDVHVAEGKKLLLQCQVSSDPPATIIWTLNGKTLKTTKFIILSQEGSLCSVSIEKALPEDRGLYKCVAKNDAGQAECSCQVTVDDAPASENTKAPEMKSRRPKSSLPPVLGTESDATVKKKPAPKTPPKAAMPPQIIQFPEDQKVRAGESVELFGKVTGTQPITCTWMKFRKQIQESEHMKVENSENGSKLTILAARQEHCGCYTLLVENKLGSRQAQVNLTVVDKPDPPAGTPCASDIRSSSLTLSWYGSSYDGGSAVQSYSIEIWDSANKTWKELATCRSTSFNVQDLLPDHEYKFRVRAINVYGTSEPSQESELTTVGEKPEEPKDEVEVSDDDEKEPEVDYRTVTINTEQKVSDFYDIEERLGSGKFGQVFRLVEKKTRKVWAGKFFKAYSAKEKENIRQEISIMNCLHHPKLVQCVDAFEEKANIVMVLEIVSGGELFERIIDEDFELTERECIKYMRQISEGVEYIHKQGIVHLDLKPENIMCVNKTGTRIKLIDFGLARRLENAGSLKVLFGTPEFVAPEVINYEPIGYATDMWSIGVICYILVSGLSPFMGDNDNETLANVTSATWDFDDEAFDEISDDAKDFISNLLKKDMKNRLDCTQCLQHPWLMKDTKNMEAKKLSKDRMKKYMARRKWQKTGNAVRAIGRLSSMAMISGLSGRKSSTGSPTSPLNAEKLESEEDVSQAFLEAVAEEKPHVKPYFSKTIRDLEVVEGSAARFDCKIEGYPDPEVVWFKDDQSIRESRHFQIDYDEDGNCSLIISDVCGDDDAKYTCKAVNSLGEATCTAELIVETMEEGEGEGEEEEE"}, "MERTK (human)": {"molecular_target": "MERTK (human) (UniProt Q12866)"}, "TLK2 (human)": {"molecular_target": "TLK2 (human) (UniProt Q86UE8)"}, "RAF1 (human)": {"molecular_target": "RAF1 (human) (UniProt P04049)"}, "[1]": {"test_system": "FLT3 (human), P36888 [ITD]"}, "FGFR1 (human)": {"molecular_target": "FGFR1 (human) (UniProt P11362)"}, "FER (human)": {"molecular_target": "FER (human) (UniProt P16591)"}, "CSNK1D (human)": {"molecular_target": "CSNK1D (human) (UniProt P48730)"}, "CHEK1 (human)": {"molecular_target": "CHEK1 (human) (UniProt O14757)", "sequence (O14757 whole entry, looked up)": "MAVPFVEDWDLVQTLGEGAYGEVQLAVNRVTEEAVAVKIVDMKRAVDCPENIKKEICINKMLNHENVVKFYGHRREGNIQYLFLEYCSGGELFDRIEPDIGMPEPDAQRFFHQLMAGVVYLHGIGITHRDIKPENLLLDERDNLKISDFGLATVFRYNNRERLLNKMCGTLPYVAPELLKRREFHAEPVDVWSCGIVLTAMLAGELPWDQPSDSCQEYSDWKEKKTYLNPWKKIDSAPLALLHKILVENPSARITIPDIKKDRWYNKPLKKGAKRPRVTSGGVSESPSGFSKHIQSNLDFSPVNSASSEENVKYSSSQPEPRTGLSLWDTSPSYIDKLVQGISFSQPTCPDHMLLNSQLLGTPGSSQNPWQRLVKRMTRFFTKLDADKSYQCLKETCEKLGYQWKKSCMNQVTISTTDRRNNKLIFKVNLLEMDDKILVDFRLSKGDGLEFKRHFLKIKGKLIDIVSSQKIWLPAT"}, "CDK16 (human)": {"molecular_target": "CDK16 (human) (UniProt Q00536)"}, "ADCK4 (human)": {"molecular_target": "ADCK4 (human) (UniProt Q96D53)"}}, "data": [{"compound": "COc1cc(C(=O)NC2CCN(C)CC2)ccc1Nc1ncc2c(n1)N(C1CCCC1)CCC(=O)N2C(C)C", "values": [{"measurement": "kinase still bound, per cent of control", "setting": "STK11 (human)", "value": 100, "unit": "%"}, {"measurement": "kinase still bound, per cent of control", "setting": "CLK2 (human)", "value": 100, "unit": "%"}, {"measurement": "kinase still bound, per cent of control", "setting": "ERBB4 (human)", "value": 100, "unit": "%"}, {"measurement": "kinase still bound, per cent of control", "setting": "CSF1R (human)", "value": 100, "unit": "%"}, {"measurement": "kinase still bound, per cent of control", "setting": "PDGFRA (human)", "value": 100, "unit": "%"}, {"measurement": "kinase still bound, per cent of control", "setting": "HCK (human)", "value": 100, "unit": "%"}, {"measurement": "kinase still bound, per cent of control", "setting": "ALK (human)", "value": 100, "unit": "%"}, {"measurement": "kinase still bound, per cent of control", "setting": "LCK (human)", "value": 100, "unit": "%"}, {"measurement": "kinase still bound, per cent of control", "setting": "PTK6 (human)", "value": 100, "unit": "%"}, {"measurement": "kinase still bound, per cent of control", "setting": "INSR (human)", "value": 100, "unit": "%"}, {"measurement": "kinase still bound, per cent of control", "setting": "CAMK4 (human)", "value": 100, "unit": "%"}, {"measurement": "kinase still bound, per cent of control", "setting": "NEK1 (human)", "value": 100, "unit": "%"}, {"measurement": "kinase still bound, per cent of control", "setting": "LIMK2 (human)", "value": 100, "unit": "%"}, {"measurement": "kinase still bound, per cent of control", "setting": "MAP3K9 (human)", "value": 100, "unit": "%"}, {"measurement": "kinase still bound, per cent of control", "setting": "EPHA4 (human)", "value": 100, "unit": "%"}, {"measurement": "kinase still bound, per cent of control", "setting": "PRKACB (human)", "value": 100, "unit": "%"}, {"measurement": "kinase still bound, per cent of control", "setting": "PLK4 (human)", "value": 100, "unit": "%"}, {"measurement": "kinase still bound, per cent of control", "setting": "MARK4 (human)", "value": 0, "unit": "%"}, {"measurement": "kinase still bound, per cent of control", "setting": "MINK1 (human)", "value": 100, "unit": "%"}, {"measurement": "kinase still bound, per cent of control", "setting": "MAPK14 (human)", "value": 100, "unit": "%"}, {"measurement": "kinase still bound, per cent of control", "setting": "TSSK1B (human)", "value": 100, "unit": "%"}, {"measurement": "kinase still bound, per cent of control", "setting": "HIPK1 (human)", "value": 100, "unit": "%"}, {"measurement": "kinase still bound, per cent of control", "setting": "CAMKK2 (human)", "value": 100, "unit": "%"}, {"measurement": "kinase still bound, per cent of control", "setting": "IRAK3 (human)", "value": 100, "unit": "%"}, {"measurement": "kinase still bound, per cent of control", "setting": "MAPK7 (human)", "value": 100, "unit": "%"}, {"measurement": "kinase still bound, per cent of control", "setting": "MAP3K7 (human)", "value": 100, "unit": "%"}, {"measurement": "kinase still bound, per cent of control", "setting": "CAMK2D (human)", "value": 100, "unit": "%"}, {"measurement": "kinase still bound, per cent of control", "setting": "NEK6 (human)", "value": 100, "unit": "%"}, {"measurement": "kinase still bound, per cent of control", "setting": "PAK2 (human)", "value": 100, "unit": "%"}, {"measurement": "kinase still bound, per cent of control", "setting": "CIT (human)", "value": 100, "unit": "%"}, {"measurement": "kinase still bound, per cent of control", "setting": "MYLK (human)", "value": 100, "unit": "%"}, {"measurement": "kinase still bound, per cent of control", "setting": "MERTK (human)", "value": 34, "unit": "%"}, {"measurement": "kinase still bound, per cent of control", "setting": "TLK2 (human)", "value": 100, "unit": "%"}, {"measurement": "kinase still bound, per cent of control", "setting": "RAF1 (human)", "value": 100, "unit": "%"}, {"measurement": "kinase still bound, per cent of control", "setting": "[1]", "value": 100, "unit": "%"}, {"measurement": "kinase still bound, per cent of control", "setting": "FGFR1 (human)", "value": 100, "unit": "%"}, {"measurement": "kinase still bound, per cent of control", "setting": "FER (human)", "value": 100, "unit": "%"}, {"measurement": "kinase still bound, per cent of control", "setting": "CSNK1D (human)", "value": 100, "unit": "%"}, {"measurement": "kinase still bound, per cent of control", "setting": "CHEK1 (human)", "value": 100, "unit": "%"}, {"measurement": "kinase still bound, per cent of control", "setting": "CDK16 (human)", "value": 100, "unit": "%"}, {"measurement": "kinase still bound, per cent of control", "setting": "ADCK4 (human)", "value": 100, "unit": "%"}]}]}
